Results taken from PubChem BioAssay AID1963434 (Molecular Pharmacology Branch, DTP, NCI, 2024).

Test system: 755483-174-R-J1-PDC complex spheroid growth, percent test/control
Assay: Anticancer human tumor 755483-174-R-J1-PDC patient-derived rhabdomyosarcoma cell line growth inhibition [Asc]
Conditions: for IC50: curve of first compound; for viability, T/C: stronger effect = lower value
Protocol: Multicellular complex tumor spheroid response to apoptosis pathway targeting inhibitors Alrizomadlin, Pelcitoclax, and Dasminapant in combination with a variety of drugs and investigational agents in selected tumor cell lines
The MDM2 inhibitor alrizomadlin, the Bcl-2/Bcl-xL inhibitor pelcitoclax, and the IAPs inhibitor dasminapant were evaluated both individually and in combination with standard of care and investigational anticancer small molecules within a complex spheroid model of solid tumors. . Complex spheroids include a stromal component modeled by human endothelial cells (HUVEC) and fibroblasts modeled by human mesenchymal stem cells (MSCs). The concentration ranges selected for each drug and investigational agent were based upon clinically achievable concentrations if the clinical Cmax of the agent was known.
Compounds. The drugs and investigational agents: alrizomadlin (APG-115; NSC831270), pelcitoclax (APG-1252; NSC835773), dasminapant (APG-1387;NSC834197), TAK-243 (NSC785004), copanlisib (NSC809693), olaparib (NSC753686), talazoparib (NSC767125), cobimetinib (NSC 768068), eltanexor (KPT-8602, NSC 794443), abemaciclib (NSC 768073), sotorasib (NSC818433), adagrasib (NSC 831453), MRTX-1133 (NSC 836407), Iadademestat (ORY1001, NSC 806812), and RMC-4630 (NSC839698), were obtained from the NCI Developmental Therapeutics Program Chemical Repository. The FDA-approved anticancer drug set is available from the Developmental Therapeutics Program at https://dtp.cancer.gov/organization/dscb/obtaining/available plates.htm. […] The stock solutions were prepared in dimethyl sulfoxide (DMSO, Sigma-Aldrich, St. Louis, MO, cat. D2650) at 800-fold the tested concentration and stored at -70 degrees C prior to their use. All drugs and investigational agents were tested over a range starting from a high concentration at or near the clinical Cmax and decreasing in half-log increments. If the clinical Cmax for an agent had not been determined, the highest concentration tested was 10 microM.
The patient-derived cancer (PDC) cell lines include five colon adenocarcinomas: 186277-243-T-J2-PDC, 616215-338-R-J1-PDC, 439559-082-T-J2-PDC, 463943-066-T-J2-PDC, and 519858-162-T-J1-PDC; three pancreatic carcinomas: 323965-272-R-J2-PDC, 521955-158-R6-J3-PDC, and 521955-158-R2-J5-PDC; two uterine sarcomas: 327498-152-R-J2-PDC and 993429-296-R-J1-PDC; two rhabdomyosarcomas: 755483-174-R-J1-PDC and 772245-204-R-J1-PDC; two soft tissue sarcomas: 126254-015-R-J1-PDC and 494315-158-R-J1-PDC; two malignant fibrous histiocytomas: 317291-083-R-J1-PDC and 596521-263-R-J1-PDC; two breast carcinomas: 171881-019-R-J1-PDC and 885512-296-R-J2-PDC; and one ovarian carcinoma: 6556581-035-R-J-PDC were obtained from the NCI PDMR, (https://pdmr.cancer.gov). The established cell lines HSSY-2 synovial sarcoma (RRID:CVCL 8719), SYO-1 synovial sarcoma (RRID:CVCL_7146), MPNST malignant peripheral neural sheath tumor were obtained from the Sloan Kettering Institute. The following established cell lines were purchased from the American Type Culture Collection (ATCC, Manassas, VA), Sor the received from the NCI repository:, PANC-1 pancreatic carcinoma (CRL-1469, RRID:CVCL_0480), OVCAR-5 ovarian carcinoma (RRID:CVCL_1628), OVCAR-8 ovarian carcinoma (RRID:CVCL_1629), , MCF-7 breast carcinoma (CRL-12584, RRID:CVCL_0031), MDA-MB-231 breast carcinoma (CRL-12532, RRID:CVCL_0062), NCI-H1876 small cell lung carcinoma (CRL-5902, RRID:CVCL_1503), NCI-H510A small cell lung carcinoma (HTB-184, RRID:CVCL_1565), NCI-H1417 (CRL-5869, RRID:CVCL_1469), and NCI-H196 small cell lung carcinoma (CRL-5823, RRID:CVCL_1509). Dr. Peter Houghton (Greehey Children's Cancer Research Institute, University of Texas Health Science Center, San Antonio, TX) provided Rh-18 rhabdomyosarcoma (RRID:CVCL_1659). Pooled donor human umbilical vein endothelial cells (HUVEC, Lonza, cat. CC-2519) and human mesenchymal stem cells (hMSC, Lonza, cat. PT-2501) were purchased from Lonza (Walkersville, MD).
Cell Culture. […]

[1] = second compound 0.03 µM, first compound 0.00316 µM
[2] = second compound 0.03 µM, first compound 0.01 µM
[3] = second compound 0.03 µM, first compound 0.0316 µM
[4] = second compound 0.03 µM, first compound 0.1 µM
[5] = second compound 0.03 µM, first compound 0.316 µM
[6] = second compound 0.03 µM, first compound 1 µM
[7] = second compound 0.0949 µM, first compound 0.00316 µM
[8] = second compound 0.0949 µM, first compound 0.01 µM
[9] = second compound 0.0949 µM, first compound 0.0316 µM
[10] = second compound 0.0949 µM, first compound 0.1 µM
[11] = second compound 0.0949 µM, first compound 0.316 µM
[12] = second compound 0.0949 µM, first compound 1 µM
[13] = second compound 0.3 µM, first compound 0.00316 µM
[14] = second compound 0.3 µM, first compound 0.01 µM
[15] = second compound 0.3 µM, first compound 0.0316 µM
[16] = second compound 0.3 µM, first compound 0.1 µM
[17] = second compound 0.3 µM, first compound 0.316 µM
[18] = second compound 0.3 µM, first compound 1 µM
[19] = second compound 0.949 µM, first compound 0.00316 µM
[20] = second compound 0.949 µM, first compound 0.01 µM
[21] = second compound 0.949 µM, first compound 0.0316 µM
[22] = second compound 0.949 µM, first compound 0.1 µM
[23] = second compound 0.949 µM, first compound 0.316 µM
[24] = second compound 0.949 µM, first compound 1 µM
[25] = second compound 3 µM, first compound 0.00316 µM
[26] = second compound 3 µM, first compound 0.01 µM
[27] = second compound 3 µM, first compound 0.0316 µM
[28] = second compound 3 µM, first compound 0.1 µM
[29] = second compound 3 µM, first compound 0.316 µM
[30] = second compound 3 µM, first compound 1 µM
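Also: spheroids exposed to compounds for seven days before readout.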

SMILES | IC50 (second compound 0.03 µM) [µM] | IC50 (second compound 0.0949 µM) [µM] | IC50 (second compound 0.3 µM) [µM] | IC50 (second compound 0.949 µM) [µM] | IC50 (second compound 3 µM) [µM] | viability, T/C [1] [%] | viability, T/C [2] [%] | viability, T/C [3] [%] | viability, T/C [4] [%] | viability, T/C [5] [%] | viability, T/C [6] [%] | viability, T/C [7] [%] | viability, T/C [8] [%] | viability, T/C [9] [%] | viability, T/C [10] [%] | viability, T/C [11] [%] | viability, T/C [12] [%] | viability, T/C [13] [%] | viability, T/C [14] [%] | viability, T/C [15] [%] | also measured
CCN1CCN(Cc2ccc(Nc3ncc(F)c(-c4cc(F)c5nc(C)n(C(C)C)c5c4)n3)nc2)CC1 + CCN1C(C(=O)NC23CCC(C(=O)O)(CC2)CC3)C(c2cccc(Cl)c2F)C2(C(=O)Nc3cc(Cl)ccc32)C12CCCCC2 | > 1 | > 1 | > 1 | > 1 | > 1 | 103 | 97.3 | 112 | 127 | 108 | 133 | 89.3 | 116 | 115 | 109 | 138 | 116 | 87 | 103 | 124 | viability, T/C [16]: 113%; viability, T/C [17]: 124%; viability, T/C [18]: 127%; viability, T/C [19]: 98.7%; viability, T/C [20]: 114%; viability, T/C [21]: 122%; viability, T/C [22]: 86.8%; viability, T/C [23]: 129%; viability, T/C [24]: 137%; viability, T/C [25]: 107%; viability, T/C [26]: 109%; viability, T/C [27]: 98.6%; viability, T/C [28]: 121%; viability, T/C [29]: 126%; viability, T/C [30]: 113%
O=C(c1ccc(F)c(F)c1Nc1ccc(I)cc1F)N1CC(O)([C@@H]2CCCCN2)C1 + CCN1C(C(=O)NC23CCC(C(=O)O)(CC2)CC3)C(c2cccc(Cl)c2F)C2(C(=O)Nc3cc(Cl)ccc32)C12CCCCC2 | 0.534 | 0.338 | 0.426 | 0.273 | 0.329 | 85.3 | 108 | 95.4 | 99.2 | 78.3 | 16 | 113 | 124 | 117 | 93.5 | 53 | 18.6 | 109 | 109 | 102 | viability, T/C [16]: 118%; viability, T/C [17]: 61%; viability, T/C [18]: 18.2%; viability, T/C [19]: 126%; viability, T/C [20]: 127%; viability, T/C [21]: 134%; viability, T/C [22]: 121%; viability, T/C [23]: 39.8%; viability, T/C [24]: 18.3%; viability, T/C [25]: 104%; viability, T/C [26]: 120%; viability, T/C [27]: 90%; viability, T/C [28]: 97.5%; viability, T/C [29]: 50.3%; viability, T/C [30]: 16.4%
